Source: US20230286970A1, “NOVEL OXADIAZOLE-BASED SELECTIVE HDAC6 INHIBITORS” (ITALFARMACO S.P.A., priority 2020, published 2023)
pIC50: −log10 of the molar value.

Assays:
recombinant human HDAC6 = recombinant human HDAC6 (Homo sapiens (Human), UniProt Q9UBN7); assay: Enzymatic screening, HDAC6 inhibition (fluorogenic FdL_G substrate); assay type: biochemical
In short: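 Enzyme was preincubated with compound (8 doses, triplicate, 1% DMSO) in 25 mM Tris-HCl pH 8, 130 mM NaCl, 0.05% Tween-20, 10% glycerol, with BSA. A FLUOR DE LYS-Green substrate was then added, and fluorescence was read after developer plus 2 μM TSA.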

HDAC8 = HDAC8 (Homo sapiens (Human), UniProt Q9BY41); assay: Enzymatic screening, HDAC8 inhibition; assay type: biochemical
Sequence of HDAC8 (Q9BY41 whole entry, canonical isoform): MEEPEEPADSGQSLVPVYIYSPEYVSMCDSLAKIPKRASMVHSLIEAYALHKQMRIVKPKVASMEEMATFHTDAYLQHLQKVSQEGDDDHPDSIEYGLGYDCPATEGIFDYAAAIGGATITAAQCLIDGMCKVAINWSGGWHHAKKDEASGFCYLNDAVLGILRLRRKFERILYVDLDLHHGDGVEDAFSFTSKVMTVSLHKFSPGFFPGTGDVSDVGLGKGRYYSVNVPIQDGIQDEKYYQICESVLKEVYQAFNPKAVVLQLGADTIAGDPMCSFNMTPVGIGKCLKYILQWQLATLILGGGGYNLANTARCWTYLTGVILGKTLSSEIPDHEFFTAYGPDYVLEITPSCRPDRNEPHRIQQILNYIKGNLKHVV
Procedure: (§1) For each test compound, 100× concentrated DMSO solutions at 8 doses were prepared and then diluted in assay buffer (25 mM Tris-HCl, pH 8, 130 mM NaCl, 0.05% Tween-20, 10% Glycerol) to obtain 5× concentrated solutions in relation to the final concentrations (typical final concentration range—6.4-200000 nM or 0.18-50000 nM, final DMSO content—1%). Then 10 μL solution of each test compound concentration were placed on a 96-well plate in triplicate and 15 μL of 3.33× concentrated enzyme solution in the assay buffer containing 3.33× concentrated BSA (final BSA concentration—2 mg/mL for HDAC4, HDAC5 and HDAC9 or 1 mg/mL for other isoforms) and in the case of HDAC6-3.33× concentrated TCEP (final TCEP concentration—200 μM) were added to each well. After a period of preincubation (incubation times and temperatures vary for different isoforms and are shown in table 1) 25 μL of solution containing the substrate were added. As substrate, FLUOR DE LYS® deacetylase substrate (Enzo Life Sciences, cat: BML-KI104, FdL), FLUOR DE LYS®-Green substrate (Enzo Life Sciences, cat: BML-KI572, FdL_G) or Boc-Lys(Tfa)-AMC (Bachem, cat: 4060676.005, Tfal)—2× concentrated solution in assay buffer were used. Following a reaction period (reaction times and temperatures vary for different isoforms and are reported in Table 1), 50 μL of the development solution consisting of concentrate FLUOR DE LYS® developer I (Enzo Life Sciences, ca: BML-KI105), diluted 200 times in buffer (50 mM Tris-HCl, pH 8, 137 mM NaCl, 2.7 mM KCl, 1 mM MgCl2) plus 2 μM TSA was added and, after 25 minutes at room temperature in the dark, using the Victor 1420 Multilabel Counter Perkin Elmer Wallac instrument, the fluorescence reading was carried out.

HDAC2 = HDAC2 (Homo sapiens (Human), UniProt Q92769); assay: Enzymatic screening, HDAC2 inhibition; assay type: biochemical
Procedure: as §1

HDAC11 = HDAC11 (Homo sapiens (Human), UniProt Q96DB2); assay: Enzymatic screening, HDAC11 inhibition; assay type: biochemical
Sequence of HDAC11 (Q96DB2 whole entry): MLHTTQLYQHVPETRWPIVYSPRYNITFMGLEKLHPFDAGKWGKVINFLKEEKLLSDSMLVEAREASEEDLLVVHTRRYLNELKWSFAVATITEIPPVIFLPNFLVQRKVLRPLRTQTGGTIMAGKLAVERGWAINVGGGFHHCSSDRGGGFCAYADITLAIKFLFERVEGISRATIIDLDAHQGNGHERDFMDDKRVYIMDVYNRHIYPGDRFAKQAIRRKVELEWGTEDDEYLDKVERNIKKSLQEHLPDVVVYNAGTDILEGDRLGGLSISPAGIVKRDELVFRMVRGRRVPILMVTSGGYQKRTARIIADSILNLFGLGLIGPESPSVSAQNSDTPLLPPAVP
Procedure: as §1

HDAC4 = HDAC4 (Homo sapiens (Human), UniProt P56524); assay: Enzymatic screening, HDAC4 inhibition; assay type: biochemical
Procedure: as §1

HDAC5 = HDAC5 (Homo sapiens (Human), UniProt Q9UQL6); assay: Enzymatic screening, HDAC5 inhibition; assay type: biochemical
Sequence of HDAC5 (Q9UQL6 whole entry): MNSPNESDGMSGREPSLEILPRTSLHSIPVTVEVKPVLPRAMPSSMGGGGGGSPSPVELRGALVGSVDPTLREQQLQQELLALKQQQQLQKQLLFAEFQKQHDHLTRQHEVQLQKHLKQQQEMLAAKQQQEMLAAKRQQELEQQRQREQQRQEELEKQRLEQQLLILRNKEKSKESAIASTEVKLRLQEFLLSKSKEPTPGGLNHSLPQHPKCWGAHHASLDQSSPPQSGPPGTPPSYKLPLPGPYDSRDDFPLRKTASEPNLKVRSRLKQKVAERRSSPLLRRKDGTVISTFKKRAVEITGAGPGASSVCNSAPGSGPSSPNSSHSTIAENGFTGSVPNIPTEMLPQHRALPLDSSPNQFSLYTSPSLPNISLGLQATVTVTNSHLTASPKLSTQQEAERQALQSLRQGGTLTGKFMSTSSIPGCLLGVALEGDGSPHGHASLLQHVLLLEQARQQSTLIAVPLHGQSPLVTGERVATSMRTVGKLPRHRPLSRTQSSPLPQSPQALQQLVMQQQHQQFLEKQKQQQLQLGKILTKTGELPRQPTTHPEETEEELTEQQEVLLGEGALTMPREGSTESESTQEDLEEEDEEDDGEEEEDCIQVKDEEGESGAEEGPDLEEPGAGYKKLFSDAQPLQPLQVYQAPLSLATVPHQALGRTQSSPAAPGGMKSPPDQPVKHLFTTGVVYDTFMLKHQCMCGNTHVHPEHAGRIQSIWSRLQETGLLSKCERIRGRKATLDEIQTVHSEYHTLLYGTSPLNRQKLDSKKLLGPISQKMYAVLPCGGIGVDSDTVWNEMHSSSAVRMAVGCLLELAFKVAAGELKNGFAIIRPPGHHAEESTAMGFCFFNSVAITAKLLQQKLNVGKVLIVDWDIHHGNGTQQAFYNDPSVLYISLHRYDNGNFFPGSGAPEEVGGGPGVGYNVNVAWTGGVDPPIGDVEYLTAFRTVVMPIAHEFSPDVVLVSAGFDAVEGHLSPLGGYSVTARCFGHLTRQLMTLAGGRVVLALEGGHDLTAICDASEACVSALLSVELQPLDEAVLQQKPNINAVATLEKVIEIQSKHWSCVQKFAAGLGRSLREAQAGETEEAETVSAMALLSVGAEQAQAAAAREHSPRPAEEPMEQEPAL
Procedure: as §1

HDAC10 = HDAC10 (Homo sapiens (Human), UniProt Q969S8); assay: Enzymatic screening, HDAC10 inhibition; assay type: biochemical
Procedure: as §1

[1] = tested on: α-tubulin acetylation in 697 cell line; assay: In vitro α-tubulin acetylation in 697 cell line (ELISA); assay type: cell-based; conditions: 16 hours, read-out: fold increase @ 1 uM TubAc (ratio of acetylated tubulin and total tubulin towards control)
Procedure: The in vitro α-tubulin acetylation determination was evaluated on B 697 promyelocytic cell line.
The test molecules were diluted from 20 mM stock solution in DMSO with RPMI 10% FCS+0.01% DMSO medium at 20× concentration compared to the final concentration, added to the cells (15×10^6 cells in a total volume of 30 mL in RPMI medium 10% FCS+0.01% DMSO) to obtain the final concentrations of 1000, 333, 111, 37 nM and incubated at 37° C., 5% CO2 for 16 hours.
At the end of the incubation period, 5×10^6 cells were taken from each sample, centrifuged for 5 minutes at 1100 rpm and washed in 0.9% NaCl at 4° C. The resulting pellet was lysed by treating at 4° C. for 30 minutes with 150 μl of Complete Lysis-M buffer containing protease inhibitors (Complete Lysis-M Roche+Complete Tablets, Mini Easypack, cat: 4719956001) and phosphatase inhibitor cocktails (PhosStop Easypack, Roche, cat: 4906837001), then centrifuged 10 minutes at 14,000 rpm (20817×g). 0.3 μg of supernatant (total protein extract) were diluted in 100 μl of 1×PBS and immobilized in Maxisorp F96 NUN-IMMUNO Plate (Nunc MaxiSorp flat-bottom, Nunc, cat: 442404) at room temperature overnight. Plates were washed twice with Wash Buffer (PBS1×+0.005% tween 20) and saturated for 1 hour at room temperature with 300 μL of 1×PBS containing 10% FCS. After washing twice with Wash Buffer, the plates were incubated for two hours at room temperature in the presence of anti-acetylated-α-tubulin antibody (Monoclonal Anti-acetylated-tubulin clone 6-11B-1, mouse ascites fluid, Sigma, cat: T6793), 100 μl/well diluted 1:1000 in 1×PBS containing 10% FCS) or with total anti-α-tubulin antibody (Monoclonal Anti-alpha-tubulin produced in mouse, Sigma, cat: T6074). Following washing of the pates 5 times with Wash Buffer the secondary antibody conjugated with the enzyme HRP (Goat anti-Mouse IgG, IgM, IgA (H+L), Thermo Fisher Scientific, cat: A10668), diluted 1:1000 in 1×PBS+10% FBS was added at the volume of 100 μl/well.
After washing 4 times, 100 μl/well of TMB substrate kit was added for 10 minutes at room temperature in the dark. The reaction was stopped by adding 50 μl of 2N H2SO4. The plates were read at Multiskan Spectrum spectrophotometer at a wavelength of 450 nm.
The degree of acetylation was calculated by dividing the absorbance obtained for acetylated α-tubulin by the absorbance of total tubulin.
The results of tubulin acetylation, expressed as fold increase of ratio of acetylated α-tubulin/total α-tubulin, of each sample relative to the control sample (untreated) are summarized in table 6.

HDAC9 = HDAC9 (Homo sapiens (Human), UniProt Q9UKV0); assay: Enzymatic screening, HDAC9 inhibition; assay type: biochemical
Sequence of HDAC9 (Q9UKV0 whole entry): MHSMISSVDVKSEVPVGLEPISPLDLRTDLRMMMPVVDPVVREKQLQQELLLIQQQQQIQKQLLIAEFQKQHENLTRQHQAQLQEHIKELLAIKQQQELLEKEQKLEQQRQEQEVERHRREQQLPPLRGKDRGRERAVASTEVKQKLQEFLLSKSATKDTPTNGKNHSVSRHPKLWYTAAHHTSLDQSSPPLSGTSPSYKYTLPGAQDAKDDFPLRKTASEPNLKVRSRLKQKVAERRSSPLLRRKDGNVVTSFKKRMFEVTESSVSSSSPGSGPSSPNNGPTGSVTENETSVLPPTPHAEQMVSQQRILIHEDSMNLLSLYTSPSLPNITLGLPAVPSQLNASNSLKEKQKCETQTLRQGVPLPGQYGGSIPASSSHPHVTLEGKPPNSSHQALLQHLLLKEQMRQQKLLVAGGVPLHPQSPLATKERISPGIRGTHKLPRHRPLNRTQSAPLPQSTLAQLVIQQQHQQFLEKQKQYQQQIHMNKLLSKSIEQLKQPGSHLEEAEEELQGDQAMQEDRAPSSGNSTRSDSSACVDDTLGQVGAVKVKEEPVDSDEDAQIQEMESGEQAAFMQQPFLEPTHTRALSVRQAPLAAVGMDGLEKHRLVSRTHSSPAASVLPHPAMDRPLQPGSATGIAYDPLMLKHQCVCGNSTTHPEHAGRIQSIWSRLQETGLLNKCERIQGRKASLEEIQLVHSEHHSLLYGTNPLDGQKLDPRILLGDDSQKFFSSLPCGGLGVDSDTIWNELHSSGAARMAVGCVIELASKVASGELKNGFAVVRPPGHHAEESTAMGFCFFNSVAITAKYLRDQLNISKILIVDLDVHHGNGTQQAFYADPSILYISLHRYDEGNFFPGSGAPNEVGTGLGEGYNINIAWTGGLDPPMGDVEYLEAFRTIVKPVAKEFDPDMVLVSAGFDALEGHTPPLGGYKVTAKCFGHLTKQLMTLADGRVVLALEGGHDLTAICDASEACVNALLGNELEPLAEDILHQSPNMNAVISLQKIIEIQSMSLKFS
Procedure: as §1

HDAC3 = HDAC3 (Homo sapiens (Human), UniProt O15379); assay: Enzymatic screening, HDAC3 inhibition; assay type: biochemical
Sequence of HDAC3 (O15379 whole entry): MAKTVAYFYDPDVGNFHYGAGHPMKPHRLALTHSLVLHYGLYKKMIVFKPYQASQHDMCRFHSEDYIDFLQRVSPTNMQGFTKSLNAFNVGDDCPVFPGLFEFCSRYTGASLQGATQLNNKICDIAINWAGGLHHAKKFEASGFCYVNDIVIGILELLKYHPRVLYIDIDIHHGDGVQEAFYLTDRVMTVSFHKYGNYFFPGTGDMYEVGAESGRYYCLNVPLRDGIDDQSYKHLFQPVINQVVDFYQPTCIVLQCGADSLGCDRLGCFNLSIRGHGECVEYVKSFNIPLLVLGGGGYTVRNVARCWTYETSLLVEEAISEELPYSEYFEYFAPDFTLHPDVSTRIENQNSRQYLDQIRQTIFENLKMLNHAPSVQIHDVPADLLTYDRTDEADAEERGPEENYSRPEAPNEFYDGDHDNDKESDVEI
Sequence of HDAC3 (Q9Y618 395-489 partner): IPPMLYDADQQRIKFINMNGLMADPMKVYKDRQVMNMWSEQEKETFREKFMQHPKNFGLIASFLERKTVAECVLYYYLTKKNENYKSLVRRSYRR
Procedure: as §1

[2] = Stability to Phase I metabolism in human S9 liver fraction; conditions: after 90 minutes, 37° C.
Procedure: Test compounds were incubated in rat and human liver S9 fraction at 37° C. up to 90 minutes in order to evaluate their stability to Phase I metabolism by hepatic enzymes. Each test compound was incubated at μM concentration (50 μM when the samples were analysed by UV/HPLC, 1 or 2 μM when the samples were analysed by LC-MS/MS) with S9 fraction (protein content 2 mg/m L) in 100 mM phosphate buffer (pH 7.4), 3.3 mM MgCl2 and 1.3 mM NADPH for 0, 10, 30, 60 and 90 minutes at 37° C. in a thermostated oscillating bath. The reaction was stopped placing samples on ice bath and adding acidified acetonitrile. After centrifugation (10 minutes at 14000 rpm) an aliquot of the supernatant was diluted with water, filtered with 0.45 μm regenerated cellulose syringe filters and injected in HPLC-UV or in LC-MS/MS. The percentage of the remaining amount at the various incubation times with respect to the initial amount were calculated.

recombinant human HDAC1 = recombinant human HDAC1 (Homo sapiens (Human), UniProt Q13547); assay: Enzymatic screening, HDAC1 inhibition (fluorogenic FdL_G substrate); assay type: biochemical
Sequence of recombinant human HDAC1 (Q13547 whole entry): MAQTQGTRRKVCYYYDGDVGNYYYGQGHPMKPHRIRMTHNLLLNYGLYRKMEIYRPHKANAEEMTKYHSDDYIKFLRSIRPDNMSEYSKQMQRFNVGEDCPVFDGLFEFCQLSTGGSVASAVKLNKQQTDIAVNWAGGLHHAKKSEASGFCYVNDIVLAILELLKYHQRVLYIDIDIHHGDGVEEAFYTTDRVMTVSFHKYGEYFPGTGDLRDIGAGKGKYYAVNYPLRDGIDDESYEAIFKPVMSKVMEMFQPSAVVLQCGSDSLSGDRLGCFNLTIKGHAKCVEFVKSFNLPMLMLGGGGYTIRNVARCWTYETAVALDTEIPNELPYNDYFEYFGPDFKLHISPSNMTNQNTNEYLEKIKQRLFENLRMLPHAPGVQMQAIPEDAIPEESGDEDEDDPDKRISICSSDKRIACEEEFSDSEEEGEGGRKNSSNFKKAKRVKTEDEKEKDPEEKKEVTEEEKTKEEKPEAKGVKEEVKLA
In short: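 Recombinant human HDAC1 inhibition was measured fluorometrically using the FLUOR DE LYS-Green (FdL_G) substrate. Compounds at 8 doses (1% DMSO final) in Tris-HCl pH 8 buffer with NaCl, Tween-20 and glycerol were preincubated in triplicate with enzyme and 1 mg/mL BSA, then given substrate. Developer I plus 2 μM TSA was added, and fluorescence read after 25 minutes in the dark.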

[3] = Stability in human plasma; conditions: after 4 hours, 37° C.
[4] = Stability to Phase I metabolism in rat S9 liver fraction; conditions: after 90 minutes, 37° C.
Stability in rat plasma = conditions: after 4 hours, 37° C.
HDAC7 = HDAC7 (Homo sapiens (Human), UniProt Q8WUI4); assay: Enzymatic screening, HDAC7 inhibition; assay type: biochemical
Sequence of HDAC7 (Q8WUI4 whole entry): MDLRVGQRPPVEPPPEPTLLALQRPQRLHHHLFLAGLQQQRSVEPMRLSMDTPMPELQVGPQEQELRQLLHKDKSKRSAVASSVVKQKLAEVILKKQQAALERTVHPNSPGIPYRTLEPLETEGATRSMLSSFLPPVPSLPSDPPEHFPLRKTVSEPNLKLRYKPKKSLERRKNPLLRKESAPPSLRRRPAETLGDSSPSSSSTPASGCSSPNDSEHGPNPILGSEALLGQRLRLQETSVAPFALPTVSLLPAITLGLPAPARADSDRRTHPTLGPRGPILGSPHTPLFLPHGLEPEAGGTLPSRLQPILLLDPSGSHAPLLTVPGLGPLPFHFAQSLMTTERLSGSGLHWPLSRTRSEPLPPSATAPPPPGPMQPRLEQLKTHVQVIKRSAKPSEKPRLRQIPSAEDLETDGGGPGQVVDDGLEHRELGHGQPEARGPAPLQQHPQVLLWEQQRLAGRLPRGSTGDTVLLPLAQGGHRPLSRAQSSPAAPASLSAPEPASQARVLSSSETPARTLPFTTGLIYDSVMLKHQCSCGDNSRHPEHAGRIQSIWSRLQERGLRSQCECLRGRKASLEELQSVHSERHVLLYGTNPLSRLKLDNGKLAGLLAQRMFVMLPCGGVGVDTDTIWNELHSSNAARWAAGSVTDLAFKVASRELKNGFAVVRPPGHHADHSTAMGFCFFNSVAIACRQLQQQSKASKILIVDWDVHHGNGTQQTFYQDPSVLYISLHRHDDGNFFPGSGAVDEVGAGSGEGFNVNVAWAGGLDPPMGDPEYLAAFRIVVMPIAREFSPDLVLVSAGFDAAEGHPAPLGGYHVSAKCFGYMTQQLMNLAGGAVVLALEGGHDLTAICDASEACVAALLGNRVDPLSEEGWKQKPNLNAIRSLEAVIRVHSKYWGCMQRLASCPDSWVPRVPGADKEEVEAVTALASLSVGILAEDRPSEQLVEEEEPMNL
Procedure: as §1

SMILES | pIC50 (recombinant human HDAC6) | pIC50 (HDAC8) | pIC50 (HDAC2) | pIC50 (HDAC11) | pIC50 (HDAC4) | pIC50 (HDAC5) | pIC50 (HDAC10) | pIC50 (HDAC9) | pIC50 (HDAC3) | residual percentage in HUMAN S9 FRACTION [2] [%] | pIC50 (recombinant human HDAC1) | residual percentage in HUMAN PLASMA [3] [%] | residual percentage in RAT S9 FRACTION [4] [%] | residual percentage in RAT PLASMA (Stability in rat plasma) [%] | pIC50 (HDAC7) | fold induction at 1 µM [1]
FC(F)c1nnc(-c2ccc(Cn3cc(-c4ccc(NC5=NCCN5)cc4)nn3)cc2)o1 [compound 10, N-(4-(1-(4-(5-(difluoromethyl)-1,3,4-oxadiazol-2-yl)benzyl)-1H-1,2,3-triazol-4-yl)phenyl)-4,5-dihydro-1H-imidazol-2-amine] | 7.80 | 4.53 | < 4.52 | < 4.52 | < 4.52 | < 4.52 | < 4.52 | < 4.52 | < 4.52 | 95 | < 3.70 | 89 | 95 | 97 | < 4.52 | 11
Nc1ccc(-c2cnn(Cc3ccc(-c4nnc(C(F)F)o4)cn3)c2)cn1 [compound 13, 5-(1-((5-(5-(difluoromethyl)-1,3,4-oxadiazol-2-yl)pyridin-2-yl)methyl)-1H-pyrazol-4-yl)pyridin-2-amine] | 7.64 | 3.71 | < 4.52 | < 4.52 | < 4.52 | < 4.52 | < 4.52 | < 4.52 | < 4.52 | 97 | < 3.70 | 78 | 98 | 75 | < 4.52 | 16
Nc1ccc(-c2cn(Cc3ccc(-c4nnc(C(F)F)o4)c(F)c3F)nn2)cn1 [compound 21, 5-(1-(4-(5-(difluoromethyl)-1,3,4-oxadiazol-2-yl)-2,3-difluorobenzyl)-1H-1,2,3-triazol-4-yl)pyridin-2-amine] | 7.77 | < 3.70 | < 4.52 | < 4.52 | < 4.52 | < 4.52 | < 4.52 | < 4.52 | < 4.52 | 99 | < 3.70 | 84 | 90 | 75 | < 4.52 | 16
O=C1NCc2ccc(-c3nnn(Cc4ccc(-c5nnc(C(F)F)o5)cn4)n3)cc21 [compound 4, 6-(2-((5-(5-(difluoromethyl)-1,3,4-oxadiazol-2-yl)pyridin-2-yl)methyl)-2H-tetrazol-5-yl)isoindolin-1-one] | 7.92 | < 3.70 | < 4.52 | < 4.52 | < 4.52 | < 4.52 | < 4.52 | < 4.52 | < 4.52 | 77 | < 3.70 | 80 | 77 | 78 | < 4.52 | 13

Now from value to compound, other results behind:

pIC50 (recombinant human HDAC6) | pIC50 (HDAC8) | pIC50 (HDAC2) | pIC50 (HDAC11) | pIC50 (HDAC4) | pIC50 (HDAC5) | pIC50 (HDAC10) | pIC50 (HDAC9) | pIC50 (HDAC3) | residual percentage in HUMAN S9 FRACTION [2] [%] | pIC50 (recombinant human HDAC1) | residual percentage in HUMAN PLASMA [3] [%] | residual percentage in RAT S9 FRACTION [4] [%] | residual percentage in RAT PLASMA (Stability in rat plasma) [%] | pIC50 (HDAC7) | SMILES | fold induction at 1 µM [1]
7.89 | < 3.70 | < 4.52 | < 4.52 | < 4.52 | < 4.52 | < 4.52 | < 4.52 | < 4.52 | 92 | < 3.70 | 76 | 96 | 81 | < 4.52 | Nc1nc2cc(-c3nnn(Cc4ccc(-c5nnc(C(F)F)o5)cn4)n3)ccc2o1 [compound 7, 5-(2-((5-(5-(difluoromethyl)-1,3,4-oxadiazol-2-yl)pyridin-2-yl)methyl)-2H-tetrazol-5-yl)benzo[d]oxazol-2-amine] | 16
7.77 | < 3.70 | < 4.52 | < 4.52 | < 4.52 | < 4.52 | < 4.52 | < 4.52 | < 4.52 | 88 | < 3.70 | 92 | 98 | 96 | < 4.52 | FC(F)c1nnc(-c2ccc(Cn3cnc(-c4ccc(NC5=NCCN5)cc4)c3)cc2)o1 [compound 22, N-(4-(1-(4-(5-(difluoromethyl)-1,3,4-oxadiazol-2-yl)benzyl)-1H-imidazol-4-yl)phenyl)-4,5-dihydro-1H-imidazol-2-amine] | 17
7.96 | 3.24 | < 4.52 | < 4.52 | < 4.52 | < 4.52 | < 4.52 | < 4.52 | < 4.52 | 99 | < 3.70 | 97 | 93 | 82 | < 4.52 | FC(F)c1nnc(-c2ccc(Cn3cnc(-c4ccc(NC5=NCCN5)cc4)c3)nc2)o1 [compound 20, N-(4-(1-((5-(5-(difluoromethyl)-1,3,4-oxadiazol-2-yl)pyridin-2-yl)methyl)-1H-imidazol-4-yl)phenyl)-4,5-dihydro-1H-imidazol-2-amine] | 11
